Square brackets hold non-standard residues; d marks the D form. Peptide text beside a SMILES is read from it. * marks the point of attachment. 2Nal = N[C@@H](Cc1ccc2ccccc2c1)C(=O)O; dNMeOrn = CN[C@H](CCCN)C(=O)O; X3 = NC(=O)CCCC(=O)*
These compounds were tested against human CXCR4 (Homo sapiens, UniProt P61073) (assay: Competitive receptor binding assay on Jurkat cells with 125I-CPCR4 as tracer). Conditions: Table 1, Nα-monomethylated cyclic pentapeptides; read-out: IC50.
Design: Jurkat cells that endogenously express the CXCR4 receptor; endogenous in cells; host or cells: Jurkat cells
Method: For receptor binding assays cells were resuspended in PBS/0.2% BSA. A total of 200 μl of the suspension containing 400,000 Jurkat cells were incubated with 25 μl of the tracer solution (containing 3.1 kBq, approx. 0.1 nM) and 25 μl of the diluent or the competitor at different concentrations. […] After shaking for 2 h at room temperature, the incubation was terminated by centrifugation at 1300 rpm for 5 min. Cell pellets were washed once with cold PBS followed by a second centrifugation step. Cell bound radioactivity was determined by using a gamma counter. Experiments were repeated 2-3 times in triplicates. IC50 values of the compounds were calculated by nonlinear regression using GraphPad Prism (GraphPad Prism 4.0 Software, Inc., San Diego, Calif., USA). Each data point is the average of three determinations.

Sequence of human CXCR4 (P61073 whole entry): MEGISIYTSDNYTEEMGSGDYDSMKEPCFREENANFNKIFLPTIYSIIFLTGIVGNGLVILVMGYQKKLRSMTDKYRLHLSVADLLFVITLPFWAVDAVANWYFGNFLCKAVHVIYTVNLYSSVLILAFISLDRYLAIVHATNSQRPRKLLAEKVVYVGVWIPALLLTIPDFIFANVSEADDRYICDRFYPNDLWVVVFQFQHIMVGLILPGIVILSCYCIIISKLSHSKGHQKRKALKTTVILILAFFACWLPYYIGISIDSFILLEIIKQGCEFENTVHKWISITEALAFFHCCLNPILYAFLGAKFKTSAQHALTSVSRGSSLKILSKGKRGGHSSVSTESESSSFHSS

| Structure (SMILES) | IC50 [µM] |
| --- | --- |
| CN1C(=O)[C@@H](Cc2ccc(O)cc2)NC(=O)CNC(=O)[C@H](Cc2ccc3ccccc3c2)NC(=O)[C@H](CCCNC(=N)N)NC(=O)[C@@H]1CCCNC(=N)N [OD1, cyc[D-Tyr-(Me)Arg-Arg-Nal-Gly]] | 0.023 |
| CN1C(=O)[C@H](CCCNC(=N)N)NC(=O)[C@@H](Cc2ccc(O)cc2)NC(=O)CNC(=O)[C@H](Cc2ccc3ccccc3c2)NC(=O)[C@@H]1CCCNC(=N)N [OD3, cyc[D-Tyr-Arg-(Me)Arg-Nal-Gly]] | 0.031 |

Same assay, conditions: Table 4, Orn-Nδ and/or Orn-Nα-modified pentapeptides; read-out: IC50

| Structure (SMILES) | IC50 [µM] |
| --- | --- |
| N=C(N)NCCC[C@@H]1NC(=O)[C@H](CCCN(Cc2ccccc2)C(=O)c2ccc(F)cc2)NC(=O)[C@@H](Cc2ccc(O)cc2)NC(=O)CNC(=O)[C@H](Cc2ccc3ccccc3c2)NC1=O [cyc[D-Tyr-Orn(Bz,FB)-Arg-Nal-Gly]] (HELM PEPTIDE1{[O=C([C@H](Cc1ccc2ccccc2c1)N[*:1])[*:2]].G.[dY].[O=C(c1ccc(F)cc1)N(CCC[C@H](N[*:1])C(=O)[*:2])Cc1ccccc1].R}$PEPTIDE1,PEPTIDE1,1:R1-5:R2$$$V2.0) | 0.1 |
| N=C(N)NCCC[C@@H]1NC(=O)[C@H](CCCNCc2cccc3ccccc23)NC(=O)[C@@H](Cc2ccc(O)cc2)NC(=O)CNC(=O)[C@H](Cc2ccc3ccccc3c2)NC1=O [cyc[D-Tyr-Orn(N1)-Arg-Nal-Gly]] (HELM PEPTIDE1{[dY].[O=C([C@H](CCCNCc1cccc2ccccc12)N[*:1])[*:2]].R.[O=C([C@H](Cc1ccc2ccccc2c1)N[*:1])[*:2]].G}$PEPTIDE1,PEPTIDE1,1:R1-5:R2$$$V2.0) | 0.04 ± 0.003 |

Same assay, conditions: Table 5, D-Orn derivatives, His, Phe; read-out: IC50

| Structure (SMILES) | IC50 [µM] |
| --- | --- |
| CN(CCC[C@@H]1C(=O)N[C@@H](CCCNC(=N)N)C(=O)N[C@@H](Cc2ccc3ccccc3c2)C(=O)NCC(=O)N[C@H](Cc2ccc(O)cc2)C(=O)N1C)C(=O)c1ccc(F)cc1 [cyc[D-Tyr-(Me)D-Orn(Me,FB)-Arg-Nal-Gly]] (HELM PEPTIDE1{[O=C([C@H](Cc1ccc2ccccc2c1)N[*:1])[*:2]].G.[dY].[CN(CCC[C@H](C(=O)[*:2])N(C)[*:1])C(=O)c1ccc(F)cc1].R}$PEPTIDE1,PEPTIDE1,1:R1-5:R2$$$V2.0) | 0.059 |
| N=C(N)NCCC[C@@H]1NC(=O)[C@H](Cc2c[nH]cn2)NC(=O)[C@@H](Cc2ccc(O)cc2)NC(=O)CNC(=O)[C@H](Cc2ccc3ccccc3c2)NC1=O [cyc[D-Tyr-His-Arg-Nal-Gly]] (HELM PEPTIDE1{[O=C([C@H](Cc1ccc2ccccc2c1)N[*:1])[*:2]].G.[dY].H.R}$PEPTIDE1,PEPTIDE1,1:R1-5:R2$$$V2.0) | 0.03 |

Same assay, conditions: Table 10, dimers and monomers; read-out: IC50

| Structure (SMILES) | IC50 [µM] |
| --- | --- |
| CN1C(=O)[C@@H](Cc2ccc(O)cc2)NC(=O)CNC(=O)[C@H](Cc2ccc3ccccc3c2)NC(=O)[C@H](CCCN=C(N)N)NC(=O)[C@H]1CCCNC(=O)CNC(=O)CC(CC(=O)NCC(=O)NCCC[C@@H]1C(=O)N[C@@H](CCCN=C(N)N)C(=O)N[C@@H](Cc2ccc3ccccc3c2)C(=O)NCC(=O)N[C@H](Cc2ccc(O)cc2)C(=O)N1C)NC(=O)CCCCCNC(=O)CN1CCN(CC(=O)O)CCN(CC(=O)O)CCN(CC(=O)O)CC1 (single isomer, unassigned) [NMe-D-Orn + Gly DOTAAhxbetaAsp] | 0.0123 |
| N=C(N)NCCC[C@@H]1NC(=O)[C@H](CCCNC(=O)CON=CCCCC=NOCC(=O)NCCC[C@@H]2NC(=O)[C@@H](Cc3ccc(O)cc3)NC(=O)CNC(=O)[C@H](Cc3ccc4ccccc4c3)NC(=O)[C@H](CCCNC(=N)N)NC2=O)NC(=O)[C@@H](Cc2ccc(O)cc2)NC(=O)CNC(=O)[C@H](Cc2ccc3ccccc3c2)NC1=O [Code A22, glutaric aldehyde-(cyclo[D-Tyr-Orn(amineoxyacetyl)-Arg-2-Nal-Gly])2] | 0.0579 |
| CN1C(=O)[C@@H](Cc2ccc(O)cc2)NC(=O)CNC(=O)[C@H](Cc2ccc3ccccc3c2)NC(=O)[C@H](CCCNC(=N)N)NC(=O)[C@H]1CCCNC(=O)CCCC(N)=O [Monomer + Glutaric acid monoamide] (cyclo([2Nal]G[dY][dNMeOrn](X3)R)) | 0.0665 |
| CN1C(=O)[C@@H](Cc2ccc(O)cc2)NC(=O)CNC(=O)[C@H](Cc2ccc3ccccc3c2)NC(=O)[C@H](CCCNC(=N)N)NC(=O)[C@H]1CCCNC(=O)CNC(=O)C[C@H](NC(=O)CCCCCNC(=O)CN1CCN(CC(=O)O)CCN(CC(=O)O)CCN(CC(=O)O)CC1)C(=O)NCC(=O)NCCC[C@@H]1C(=O)N[C@@H](CCCNC(=N)N)C(=O)N[C@@H](Cc2ccc3ccccc3c2)C(=O)NCC(=O)N[C@H](Cc2ccc(O)cc2)C(=O)N1C [NMe-D-Orn + Gly DOTAAhxAsp] | 0.038 |

Same assay, conditions: read-out: IC50 (affinity)

| Structure (SMILES) | IC50 [µM] |
| --- | --- |
| N=C(N)NCCC[C@@H]1NC(=O)[C@H](CCCNC(=O)CON=CCCCC=NOCC(=O)NCCC[C@@H]2NC(=O)[C@@H](Cc3ccc(O)cc3)NC(=O)CNC(=O)[C@H](Cc3ccc4ccccc4c3)NC(=O)[C@H](CCCNC(=N)N)NC2=O)NC(=O)[C@@H](Cc2ccc(O)cc2)NC(=O)CNC(=O)[C@H](Cc2ccc3ccccc3c2)NC1=O [Code A22, glutaric aldehyde-(cyclo[D-Tyr-Orn(amineoxyacetyl)-Arg-2-Nal-Gly])2] | 0.058 ± 0.0042 |
